Experimental data taken from ChEMBL document CHEMBL4219208, “5'-Hydroxy-5'-homoaristeromycin: Synthesis and antiviral properties” (Bioorg Med Chem Lett, 2018).
The source made the active and inactive calls. No cut-off for these calls is given here.

Assays:
Hepatitis B virus = assay: Antiviral activity against Hepatitis B virus ayw infected in human HepG2.2.15 cells; format: functional, organism-based, Hepatitis B virus subtype ayw
[1] = Cytotoxicity against human HepG2.2.15 cells assessed as reduction in cell viability; format: cell-based, HepG2 2.2.15
Poliovirus 1 = assay: Antiviral activity against Polio virus type 1 infected in monkey LLC-MK2 clone 7.1 cells; format: functional, organism-based
Yellow fever virus = assay: Antiviral activity against Yellow fever virus 17D infected in African green monkey Vero cells; format: functional, organism-based
LLC-MK2 = assay: Cytotoxicity against monkey LLC-MK2 clone 7.1 cells assessed as reduction in cell viability; format: cell-based, Macaca mulatta; conditions: rhesus monkey
SARS-CoV = assay: Antiviral activity against SARS coronavirus Toronto-2 infected in African green monkey Vero E6 cells; format: functional, organism-based; conditions: Severe acute respiratory syndrome-related coronavirus, Vero C1008
Vero C1008 = assay: Cytotoxicity against African green monkey Vero E6 cells assessed as reduction in cell viability; format: cell-based; conditions: chlorocebus sabaeus
Human orthopneumovirus = assay: Antiviral activity against Respiratory syncytial virus A infected in human Hep2 cells; format: functional, organism-based; conditions: type A
HEp-2 = assay: Cytotoxicity against human Hep2 cells assessed as reduction in cell viability; format: cell-based
Hepatitis C virus = assay: Antiviral activity against Hepatitis C virus Con1 infected in human Huh-Luc-Neo cells; format: functional, organism-based; conditions: Hepacivirus hominis; isolate Con1
[2] = Cytotoxicity against human Huh-Luc-Neo cells assessed as reduction in cell viability; format: cell-based
Human alphaherpesvirus 1 = assay: Antiviral activity against Herpes simplex virus 1 E-377 infected in HFF; format: functional, organism-based
Human alphaherpesvirus 2 = assay: Antiviral activity against Herpes simplex virus 2 G infected in HFF; format: functional, organism-based
Vaccinia virus = assay: Antiviral activity against Vaccinia virus Copenhagen infected in HFF cells; format: functional, organism-based; conditions: Orthopoxvirus vaccinia
dengue virus type 2 = assay: Antiviral activity against Dengue virus type 2 New guinea infected in African green monkey Vero 76 cells; format: functional, organism-based
Vero 76 = assay: Cytotoxicity against African green monkey Vero 76 cells assessed as reduction in cell viability; format: cell-based; conditions: chlorocebus sabaeus
Rift Valley fever virus = assay: Antiviral activity against Rift Valley fever virus MP-12 infected in African green monkey Vero 76 cells; format: functional, organism-based
[3] = tested on: Venezuelan equine encephalitis virus; assay: Antiviral activity against Venezuelan equine encephalitis virus TC-83 infected in African green monkey Vero cells; format: functional, organism-based
Vero = assay: Cytotoxicity against African green monkey Vero cells assessed as reduction in cell viability; format: cell-based; conditions: chlorocebus sabaeus
Influenza A virus = assay: Antiviral activity against Influenza A virus (A/California/07/2009(H1N1)) infected in MDCK cells; format: functional, organism-based
MDCK = assay: Cytotoxicity against MDCK cells assessed as reduction in cell viability; format: cell-based, Canis lupus familiaris; conditions: dog
West Nile virus = assay: Antiviral activity against West Nile virus KERN 515/WN02 infected in MDCK cells; format: functional, organism-based
Human betaherpesvirus 5 = assay: Antiviral activity against Human cytomegalovirus AD169 infected in HFF; format: functional, organism-based; conditions: Human betaherpesvirus 5, AD169, HFF
[4] = Cytotoxicity against HFF assessed as reduction in cell viability; format: cell-based; conditions: human, HFF cells

Row | Structure (SMILES) | EC50 (Hepatitis B virus) | CC50 [1] | Activity (Poliovirus 1) | Activity (LLC-MK2) | Activity (SARS-CoV) | Activity (Vero C1008) | Activity (Human orthopneumovirus) | Activity (HEp-2) | Activity (Hepatitis C virus) | Activity [2] | Activity (Human alphaherpesvirus 1) | Activity (Human alphaherpesvirus 2) | Activity (Vaccinia virus) | Activity (dengue virus type 2) | Activity (Vero 76) | Activity (Rift Valley fever virus) | Activity [3] | Activity (Vero) | Activity (Influenza A virus) | Activity (MDCK) | further results
1 | Nc1ncnc2c1ncn2[C@@H]1C[C@H]([C@H](O)CO)[C@@H](O)[C@H]1O | 7.1 µM | > 100 µM | inactive | Non-Toxic | inactive | Non-Toxic | inactive | Non-Toxic | inactive | Non-Toxic | inactive | inactive | inactive | inactive | Non-Toxic | inactive | inactive | Non-Toxic | inactive | Non-Toxic | Activity (Yellow fever virus): inactive; Activity (West Nile virus): inactive
2 | Nc1ncnc2c1ncn2[C@@H]1C[C@H]([C@@H](O)CO)[C@@H](O)[C@H]1O | 7.4 µM | > 100 µM | inactive | Non-Toxic | inactive | Non-Toxic | inactive | Non-Toxic | inactive | Non-Toxic | inactive | inactive | inactive | inactive | Non-Toxic | inactive | inactive | Non-Toxic | inactive | Non-Toxic | EC50 (Human betaherpesvirus 5): 720 nM; CC50 [4]: > 300 µM; Activity (West Nile virus): inactive
